These results are taken from patent publication US9745288B2, “Compounds and methods for treating cancer by inhibiting the urokinase receptor” (Indiana University Research and Technology Corporation, priority 2011, dated 2017).

For one data set, the target named is T1, uPAR (Homo sapiens, UniProt Q03405).
T1 construct: human uPAR (suPAR, amino acids 1-283) was expressed in stably transfected Drosophila S2 cells; made in house; host or cells: Drosophila S2 cells
The data set can be described thus: Fluorescence polarization assay, displacement of AE147-FAM peptide from uPAR. In kind it is binding. To be noted: Table 1, assay not stated; for Ki: read-out: Ki. As for the experimental part:
Fluorescence Polarization Assay. The fluorescence polarization assay used fluorescent AE147-FAM peptide. uPAR was titrated against the fluorescent AE147-FAM peptide and data were fit to a sigmoidal dose-dependent curve as the FP value increases to determine the Kd of binding using Sigmaplot (Systat Software Inc., CA). Inhibitor screens were carried out in triplicates using 500 nM uPAR, 100 nM AE147-FAM, and inhibitor concentrations ranging from 0.78 μM to 100 μM in 50 μL volumes in black BD Falcon 384-well microplate. […] Polarized fluorescence intensities were measured immediately following addition of inhibitors to the protein-peptide mix at room temperature on an EnVision® Multilabel Plate Readers (PerkinElmer) with excitation and emission wavelengths of 485 nm and 530 nm, respectively.
Cloning, Expression and Purification of uPAR. uPAR was successfully cloned, expressed and purified. From 1 L of culture, nearly 12 mg of protein was expressed, which will be sufficient to conduct the experiments disclosed herein. Briefly, a truncated, soluble form of human uPAR (suPAR, amino acids 1-283) was expressed in stably transfected Drosophila S2 cells using the Drosophila Expression System (Invitrogen). suPAR was obtained by a two-step purification process. The conditioned culture medium was filtered (0.45 μm) and loaded onto a DEAE Sephadex column equilibrated with 20 mM Tris (pH 7.4). The protein was eluted with a gradient of 0-1 M NaCl in 20 mM Tris (pH 7.4). suPAR containing fractions were then pooled, concentrated, and filtered prior to RP-HPLC using a semi-preparative (10×25 cm) C8 column. A 1 mL aliquot of the concentrated protein was loaded onto the column at initial gradient conditions of 95% eluent A and 5% eluent B, where eluent A was 0.1% TFA/100% H2O and eluent B was 70:30 acetonitrile/[…]. The protein elutes using a gradient of 5% eluent A to 95% eluent B over 46 minutes at a flow rate of 4 mL/min. Under these conditions, the protein eluted as a single sharp peak (tR=29 min). […] Surface plasmon resonance confirmed that the purified uPAR was capable of binding to uPA. The identity of the 60 kDa band was established by immunoblot (not shown).
The design of a fluorescent probe was guided by the three-dimensional structure of uPAR in complex with peptide AE147.^27 As this peptide binds at the same site that is occupied by the growth factor-like domain of uPA, it provides the basis for the development of a competition assay to assess binding to this site. Flurescein was introduced to the N-terminus of AE147.
All 210 compounds were screened at initial concentration of 50 μM for displacement of AE147-FAM peptide. Eleven compounds gave polarization readings that were five times that of the standard deviation of the control peptide (FIG. 1B). Secondary concentration-dependent study for these eleven compounds was performed.
The resulting inhibition curves were used to determine an inhibition constant, Ki, for each.

The test system of data set [1] is MDA-MB-231 cells. The data set can be described thus: Invasion assay (Boyden chamber, Matrigel). It counts as cell-based, human. Here is the method:
Invasion and Migration Assays. These assays were performed using BD BioCoat Matrigel Invasion Chamber (Cat. 354480, BD Biosciences, Bedford, Mass.). The undersurface of the inserts was coated with 30 μg/mL of fibronectin (Sigma, F2006) in PBS at 4° C. overnight. The inserts were washed with PBS once. Then, 0.5 mL of serum-free medium was separately added to the upper and lower chambers to equilibrate the Matrigel invasion chambers at 37° C., 5% CO2 for 2 hours. After starvated with serumfree DMEM or 4 hours, subconfluent MDA-MB-231 cells were trypsinized and resuspended in 0.1% FBS DMEM. 5×10^4 cells in 500 μL of 0.1% FBS DMEM containing various compounds or 1.0% DMSO (as control) were added to the upper chambers. 500 μL of 10% FBS DMEM containing the same concentration of the same compound or DMSO were added to the lower chambers. We incubated the invasion chambers for 3 hours at 37° C., 5% CO2. Non-invaded cells were removed from the upper chamber with a cotton swab. The invaded cells were fixed with 100% methanol and then stained with Hematoxylin Stain Harris Modified Method (Fisher, SH30-500D). The filters were washed with water 3 times. Filters were air dried and the invaded cells were counted in ten randomly selected microscopic fields (×200 magnification). The experiment was performed in triplicate per group and shown by mean±SE.
Whether the two active compounds affected invasion, adhesion and migration in cell culture in a concentration-dependent study was tested (FIGS. 2A, 2B). For invasion, the Transwell (or Boyden) chamber assay was used.^28 The assay uses a chamber with two compartments that are separated by a microporous membrane known as Matrigel consisting of components of the ECM such as collagen, laminin and fibronectin.^28
Invasive tumor cells degrade the Matrigel and migrate through the membrane to the lower compartment. […] FIGS. 2A and 2B show the effect of representative presently disclosed compounds on MDA-MB-231 metastasis. Percent inhibition of invasion, migration, and adhesion of MDA-MB-231 by compounds that bind to uPAR.

The subject of data set [2] is MDA-MB-231 cells. Kind of data set: Adhesion assay on fibronectin-coated wells. It counts as cell-based, human. To be noted: MDA-MB-231. As for the experimental part:
Adhesion Assay. Quantitative cell adhesion assays were carried out in nontissue culture treated 96-well microtiter plates (Evergreen Scientific, Los Angeles, Calif.) which were coated with 15 μg/mL fibronectin (Sigma) for 1 h at room temperature. Fibronectin coated and uncoated control wells were blocked for 1 h with 3% heat denatured bovine serum albumin (BSA) at 37° C. Cells were split one day prior to the experiment to achieve a subconfluent culture. […] The wells were washed and the number of adherent cells was quantified by crystal violet staining at 570 nm.^19,20 The results were shown by means±SE.

Data set [3] deals with MDA-MB-231 cells. The data set can be described thus: MTT proliferation assay. It counts as cell-based, human. As to conditions: MDA-MB-231. Here is the method: (§1) Proliferation Assay. The procedure consisted of culturing cells at 37° C. in 10% FBS-DMEM medium containing various amounts of compound. 5 mM compound stock in 100% DMSO was 1:50 diluted in medium, filtered, and serially diluted in 96-well plate. Then seeded cells were incubated for 3 days. Viable cells were quantified by MTT assay at absorbance of 570 and 630 nm.
FIGS. 4A-4D show inhibition of MDA-MB-231 proliferation and mechanism of cell killing. To gain insight into the mechanism by which these compounds are inhibiting growth, a flow cytometry analysis with annexin V-FITC and PI staining was performed. The level of apoptotic cells in MDA-MB-231 was assessed by the percentage of Annexin V-positive/PI-negative cells present after exposure of MDAMB-231 cells to increasing concentration of IPR-69 for 24 h (FIG. 4B). At a concentration of 50 μM, IPR-69 induced significant apoptosis as evidenced by a 51% and 21% increase in apoptotic cells (Annexin V positive/PI-negative) and necrotic cells (Annexin V-positive/PI-positive), respectively. […] At a concentration of 50 μM, 26% of cells were necrotic (Annexin V positive/PI-positive), a 22% increase over control. 46% of cells were apoptotic (Annexin V positive/PInegative), compared with 4% of control.

The test system of another data set is MMP-9. Kind of data set: Gelatin zymography of MDA-MB-231 conditioned medium. In kind it is cell-based, human. As for the experimental part: Gelatin Zymography. MDA-MB-231 cells were treated with different concentrations of uPAR compounds in serum free medium for 24 h, the conditioned medium were collected, concentrated by Amicon Ultra centrifugal filter units (Millipore, #UFC500324), proteins were normalized and electrophoresed on sodium dodecyl sulfate (SDS)-polyacrylamide gels (10%) containing 1 mg/mL gelatin. After electrophoresis, the gel was washed twice in 50 mM Tris-HCl (pH 7.6) containing 5 mM CaCl2 and 2.5% Triton X-100 for 30 minutes at room temperature and incubated in buffer that contained 50 mM Tris-HCl (pH 7.6), 200 mM NaCl, 10 mM CaCl2 at 37° C. for 36 h. Then, the gels were stained with 0.05% Coomassie brilliant blue (CBB) and destained with 30% methanol in 10% acetic acid. Areas of gelatinolytic degradation appeared as transparent bands on the blue stained background of the gel. Data were quantified using Image J.
To degrade collagen within the ECM, malignant cells unleash a series of extracelullar proteases known as matrix metalloproteinases (MMPs).

The test system of data set [4] is PANC-1 cells. The data set can be described thus: MTT assay. It counts as cell-based, human. As for the experimental part:
as §1
Some of the compounds of the presently disclosed subject matter were tested in a MTT assay using a human pancreas carcinoma cell line PANC-1 (FIG. 12A). […] One of these compounds, IPR-737, was further tested in a MTT assay using MDA-MB-231, AsPC-1 (human pancreas adenocarcinoma cell line), and PANC-1 cells.

In data set [5] the test system is PANC-1 cells. The data set can be described thus: PANC-1 invasion assay. It counts as cell-based, human.
The subject of data set [6] is different signaling molecules. The data set can be described thus: Western blot analysis of signaling. It counts as cell-based. As to conditions: n=1. Here is the method: In light of the previously reported role of uPAR in signaling, the effect of IPR-993, IPR-737, IPR-81 and IPR-69 on signaling was studied by Western blot analysis (FIG. 23). A concentration-dependent study was carried out for IPR-737.

In a further data set the target is CYP2C9 (Homo sapiens, UniProt P11712). Kind of data set: Fluorescence-based CYP2C9 inhibition assay. As to conditions: 5 μM. Here is the method:
CYP metabolism was measured using a fluorescence-based assay designed by Cohen et al.,^41 recently implemented by Invitrogen (Carlsbad, Calif.).

T1 sequence (Q03405 23-305): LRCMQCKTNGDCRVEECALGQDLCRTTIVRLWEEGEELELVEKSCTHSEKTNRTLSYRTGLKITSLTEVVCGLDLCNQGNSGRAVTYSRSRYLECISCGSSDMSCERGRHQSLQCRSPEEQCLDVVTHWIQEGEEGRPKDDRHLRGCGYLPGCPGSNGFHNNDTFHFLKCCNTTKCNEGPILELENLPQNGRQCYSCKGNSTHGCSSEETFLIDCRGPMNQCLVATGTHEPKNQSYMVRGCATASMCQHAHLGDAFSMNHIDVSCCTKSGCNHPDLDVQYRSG
CYP2C9, sequence (P11712 whole entry): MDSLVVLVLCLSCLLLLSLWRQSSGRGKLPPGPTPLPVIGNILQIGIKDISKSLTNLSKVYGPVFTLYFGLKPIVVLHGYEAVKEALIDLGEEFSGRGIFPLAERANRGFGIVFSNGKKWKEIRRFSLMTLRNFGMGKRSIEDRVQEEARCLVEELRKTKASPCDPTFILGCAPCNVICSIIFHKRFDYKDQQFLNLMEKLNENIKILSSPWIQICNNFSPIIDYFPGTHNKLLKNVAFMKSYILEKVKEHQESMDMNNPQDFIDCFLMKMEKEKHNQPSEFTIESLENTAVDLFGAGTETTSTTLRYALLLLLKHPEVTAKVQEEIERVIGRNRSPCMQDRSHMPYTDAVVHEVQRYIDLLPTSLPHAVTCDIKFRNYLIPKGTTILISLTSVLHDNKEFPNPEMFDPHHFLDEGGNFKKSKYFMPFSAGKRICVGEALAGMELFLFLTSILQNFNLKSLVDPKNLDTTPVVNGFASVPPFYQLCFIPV

`c1ccc(CNCCC(Cc2ccccc2)c2ccc3c(c2)OCO3)cc1` (stereo not drawn) [IPR-021]: on uPAR, the IC50 was 58.7 µM and the Ki is 17.9 µM.
The matching figures for `COc1ccccc1C(CCNCc1ccccc1)c1ccc2c(c1)OCO2` (stereo not drawn) [IPR-022]: 24.2 µM and 7.3 µM.
With `COc1ccc(N2C(=O)CCC(C(=O)Nc3ccc(OC)c(Cl)c3)C2c2ccc(OC)c(OC)c2)cc1` (stereo not drawn) [IPR-108], at uPAR, the IC50 came out at 42 µM and the Ki was 12.8 µM.
For `CCCCCCOc1cccc(N2C(=O)C(O)=C(C(=O)c3ccccc3)C2c2ccc(CC)cc2)c1` (stereo not drawn) [IPR-993], in the data set with MDA-MB-231 cells [1], the “cell invasion” value is reported as “inhibition of activity with increasing concentrations of compound”. For the same compound, the “cell adhesion” value with MDA-MB-231 cells [2] is given as “some activity”. The “cell proliferation / viability (MTT, words)” value with MDA-MB-231 cells [3] and with PANC-1 cells [4] was “inhibited cell viability” throughout. For the same compound, the “MMP-9 activity in gelatin zymography” value with MMP-9 was “did not appear to demonstrate impairment of MMP-9 activity”. The “cell viability in the PANC-1 invasion assay” value in the data set on PANC-1 cells [5] is “little decrease in cell viability”. In the data set on PANC-1 cells [5] (increasing concentrations), the “PANC-1 invasion” value is listed as “inhibition of activity with increasing concentrations of compound”. Further, the “effect on signaling molecules” value in data set [6] was “did not seem to be much of an effect”.
Turning to `Nc1ccc(S(=O)(=O)Nc2ccnn2-c2ccccc2)cc1` [sulphaphenazole, reference compound], the “inhibition of CYP2C9” value against CYP2C9 is “approximately 69%”.
